In PMC7519584 (Clinical cancer research : an official journal of the …, 2015):

Columns and labels:
[1] = human, in vivo
[2] = ref NCT00610194; cited from earlier work
clinical = conditions: human, in vivo
[3] = Plasma pharmacokinetics of refametinib, metabolite M17 and sorafenib; conditions: human, in vivo, Geometric mean maximum drug concentration (Cmax), multiple dose, day 1 of course 2, at the MTD, non-HCC patients
HCC = conditions: sorafenib monotherapy, phase III trial in HCC (SHARP); cited from earlier work

| SMILES | Patients with serious AEs considered possibly related to refametinib (human, in vivo) [patients] | Maximum tolerated dose (MTD) of refametinib (in combination with sorafenib 400 mg twice daily, 28-day courses) [mg twice daily] | Multiple-dose AUC0–12 higher than single-dose AUC0–12 by an average of [1] | Accumulation after multiple dosing ([1]; 28 days) | MTD of refametinib monotherapy [2] [mg twice daily] | half-life (clinical; Plasma half-life (geometric mean)) [h] | Tmax (clinical; po) [h] | Cmax [3] [ng/mL] | Sorafenib dose at the MTD of the combination (in combination with refametinib 50 mg twice daily, 28-day courses) [mg twice daily] | Patients who achieved stable disease (HCC) [%] | Response rate (HCC) [%] |
| --- | --- | --- | --- | --- | --- | --- | --- | --- | --- | --- | --- |
| COc1cc(F)c(F)c(Nc2ccc(I)cc2F)c1NS(=O)(=O)C1(C[C@H](O)CO)CC1 [refametinib] | 10 | 50 | approximately 40% | less than 2 fold | 50 | ~16 | ~3 | 674 |  |  |  |
| CNC(=O)c1cc(Oc2ccc(NC(=O)Nc3ccc(Cl)c(C(F)(F)F)c3)cc2)ccn1 [sorafenib] |  |  |  |  |  |  |  |  | 400 | 71 | 2 |
